This is an account of results in patent US20230104936A1, “TRPML MODULATORS” (Casma Therapeutics, Inc., priority 2019, published 2023).

Each structure is given as a SMILES string.

One assay has as its system TFEB. Kind of assay: TFEB nuclear translocation assay, HeLa wt cells. Type of assay: cell-based. To be noted: 2 hrs compound treatment, Table 1 does not say HeLa wt or TRPML1 KO. In a few lines:
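HeLa wt, 2 hr compound, 37° C; 4% PFA fix; anti-TFEB (rabbit, 1:200, overnight 4° C) + Alexa 488 secondary, Hoechst. Imaged ×20, 4 fields/well. Readout: nuclear/ring Alexa 488 intensity ratio; AC50.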
In the case of `CN(C)S(=N)(=O)c1ccc(S(=O)(=O)Nc2cccc(F)c2N2CCC(CN3CC4CCC(C3)O4)CC2)cc1` (stereo not drawn) [Compound A-852, N-(2-(4-((8-oxa-3-azabicyclo[3.2.1]octan-3-yl)methyl)piperidin-1-yl)-3-fluorophenyl)-4-(N,N-dimethylsulfamidimidoyl)benzenesulfonamide], the AC50 (commonly the concentration giving half of the maximal activity seen) was no more than 2 µM.

Regarding `CN(C)S(=N)(=O)c1ccc(S(=O)(=O)Nc2cccc(F)c2N2CCC(CN3CC4CCC(C3)O4)CC2)cc1` (stereo not drawn) [Compound A-853, N-(2-(4-((8-oxa-3-azabicyclo[3.2.1]octan-3-yl)methyl)piperidin-1-yl)-3-fluorophenyl)-4-(N,N-dimethylsulfamidimidoyl)benzenesulfonamide], the AC50 was no more than 2 µM.

Consider `CC(c1cccc(F)c1N1CCC(CN2C3CCC2COC3)CC1)S(=O)(=O)c1ccc(S(=O)(=O)N(C)C)cc1` (stereo not drawn) [Compound A-855, 4-((1-(2-(4-((3-oxa-8-azabicyclo[3.2.1]octan-8-yl)methyl)piperidin-1-yl)-3-fluorophenyl)ethyl)sulfonyl)-N,N-dimethylbenzenesulfonamide], for which the AC50 was 2.01 to 8 µM.

The molecule `CC(c1cccc(F)c1N1CCC(CN2C3COCC2C3)CC1)S(=O)(=O)c1ccc(S(=O)(=O)N(C)C)cc1` (stereo not drawn) [Compound A-860, 4-(1-{3-fluoro-2-[4-({3-oxa-6-azabicyclo[3.1.1]heptan-6-yl}methyl)piperidin-1-yl]phenyl}ethanesulfonyl)-N,N-dimethylbenzene-1-sulfonamide] came in with a half-maximal activity concentration (AC50) of 2.01 to 8 µM.

In turn, `CC(c1cccc(F)c1N1CCC(CN2C3COCC2C3)CC1)S(=O)(=O)c1ccc(S(=O)(=O)N(C)C)cc1` (stereo not drawn) [Compound A-870, 4-((1-(2-(4-((3-oxa-6-azabicyclo[3.1.1]heptan-6-yl)methyl)piperidin-1-yl)-3-fluorophenyl)ethyl)sulfonyl)-N,N-dimethylbenzenesulfonamideformate] yielded an AC50 of no less than 10 µM.

Staying with this assay, now noted: Homo sapiens, HeLa, 2 h, 2 hrs compound treatment, Table 1 does not say HeLa wt or TRPML1 KO.
`C[C@@H]1CN(CC2CCN(c3c(F)cccc3NS(=O)(=O)c3ccc(S(C)(=N)=O)cc3)CC2)C[C@H](C)O1` (stereo partly drawn) [Compound A-841, N-(2-(4-(((2R,6S)-2,6-dimethylmorpholino)methyl)piperidin-1-yl)-3-fluorophenyl)-4-(S-methylsulfonimidoyl)benzenesulfonamide]: the AC50 lay in the range of 2.01 to 8 µM.

For the molecule `CC(c1cccc(C#N)c1N1CCC(CN2C[C@@H](C)O[C@@H](C)C2)CC1)S(=O)(=O)c1ccc(S(=O)(=O)N(C)C)cc1` (stereo partly drawn) [Compound A-842, 4-((1-(3-cyano-2-(4-((2,6-dimethylmorpholino)methyl)piperidin-1-yl)phenyl)ethyl)sulfonyl)-N,N-dimethylbenzenesulfonamide], the AC50 was no more than 2 µM.

With `CN(C)S(=N)(=O)c1ccc(S(=O)(=O)Nc2cccc(F)c2N2CCC(CN3CC4CCC(C3)O4)CC2)cc1` (stereo not drawn) [Compound A-844, 4-({3-fluoro-2-[4-({8-oxa-3-azabicyclo[3.2.1]octan-3-yl}methyl)piperidin-1-yl]phenyl}sulfamoyl)-N,N-dimethylbenzene-1-sulfonoimidamide], the AC50 was no more than 2 µM.

In the case of `CC(c1ccncc1N1CCC(CN2C[C@@H](C)O[C@@H](C)C2)CC1)S(=O)(=O)c1ccc(S(=O)(=O)N(C)C)cc1` (stereo partly drawn) [Compound A-850, 4-{1-[3-(4-{[(2R,6S)-2,6-dimethylmorpholin-4-yl]methyl}piperidin-1-yl)pyridin-4-yl]ethanesulfonyl}-N,N-dimethylbenzene-1-sulfonamide], the AC50 is 2.01 to 8 µM.

With `CN(C)S(=O)(=O)c1ccc(S(=O)(=O)Nc2cncc(F)c2N2CCCCC2)cc1` [Compound A-856, N1-(5-fluoro-4-(piperidin-1-yl)pyridin-3-yl)-N^4,N^4-dimethylbenzene-1,4-disulfonamide], the AC50 is no less than 10 µM.

In the case of `CCC(C1CCN(c2c(F)cccc2NS(=O)(=O)c2ccc(S(=N)(=O)N(C)C)cc2)CC1)N1CCOCC1` (stereo not drawn) [Compound A-857, 4-[(3-fluoro-2-{4-[1-(morpholin-4-yl)propyl]piperidin-1-yl}phenyl)sulfamoyl]-N,N-dimethylbenzene-1-sulfonoimidamide], the AC50 was no more than 2 µM.

Turning to `CN(C)S(=N)(=O)c1ccc(S(=O)(=O)Nc2cccc(F)c2N2CCC(C3(N4CCOCC4)CC3)CC2)cc1` (stereo not drawn) [Compound A-858, 4-[(3-fluoro-2-{4-[1-(morpholin-4-yl)cyclopropyl]piperidin-1-yl}phenyl)sulfamoyl]-N,N-dimethylbenzene-1-sulfonoimidamide], the AC50 is no more than 2 µM.

With `CC(c1cccc(F)c1N1CCC(CN2C[C@@H](C)O[C@H](C)C2)CC1)S(=O)(=O)c1ccc(S(=O)(=O)N(C)C)cc1` (stereo partly drawn) [Compound A-859, 4-{1-[2-(4-{[(2R,6R)-2,6-dimethylmorpholin-4-yl]methyl}piperidin-1-yl)-3-fluorophenyl]ethanesulfonyl}-N,N-dimethylbenzene-1-sulfonamide], the AC50 was no more than 2 µM.

Molecule `COCC(F)(F)C1CCN(c2c(F)cccc2NS(=O)(=O)c2ccc(S(=O)(=O)N(C)C)cc2)CC1` [Compound A-861, N4-{2-[4-(1,1-difluoro-2-methoxyethyl)piperidin-1-yl]-3-fluorophenyl}-N1,N1-dimethylbenzene-1,4-disulfonamide] displayed an AC50 of no more than 2 µM.

As to `C[C@H]1CN(CC2CCN(c3c(F)cccc3NS(=O)(=O)c3ccc(S(=O)(=O)N(C)C)cc3)CC2)[C@@H](C)CO1` [Compound A-862, N4-[2-(4-{[(2S,5S)-2,5-dimethylmorpholin-4-yl]methyl}piperidin-1-yl)-3-fluorophenyl]-N1,N1-dimethylbenzene-1,4-disulfonamide], the AC50 was no more than 2 µM.

`C[C@@H]1CN(CC2CCN(c3c(NS(=O)(=O)c4ccc(S(=O)(=O)N(C)C)cc4)cccc3C3CC3)CC2)C[C@H](C)O1` [Compound A-863, N4-[3-cyclopropyl-2-(4-{[(2R,6S)-2,6-dimethylmorpholin-4-yl]methyl}piperidin-1-yl)phenyl]-N1,N1-dimethylbenzene-1,4-disulfonamide] yielded an AC50 of no more than 2 µM.

In the case of `C[C@@H]1CN(CC2CCN(c3c(Br)cccc3NS(=O)(=O)c3ccc(S(=O)(=O)N(C)C)cc3)CC2)C[C@H](C)O1` [Compound A-864, N4-[3-bromo-2-(4-{[(2R,6S)-2,6-dimethylmorpholin-4-yl]methyl}piperidin-1-yl)phenyl]-N1,N1-dimethylbenzene-1,4-disulfonamide], the AC50 was no more than 2 µM.

Molecule `C[C@@H]1CN(CC2CCN(c3c(F)cccc3NS(=O)(=O)c3ccc(S(=O)(=O)N(C)C)cc3)CC2)[C@@H](C)CO1` [Compound A-865, N4-[2-(4-{[(2R,5S)-2,5-dimethylmorpholin-4-yl]methyl}piperidin-1-yl)-3-fluorophenyl]-N1,N1-dimethylbenzene-1,4-disulfonamide] yielded an AC50 of no more than 2 µM.

The molecule `CC1COCC(C)N1CC1CCN(c2c(F)cccc2NS(=O)(=O)c2ccc(S(=O)(=O)C(F)F)cc2)CC1` (stereo not drawn) [Compound A-866, 4-difluoromethanesulfonyl-N-(2-{4-[(3,5-dimethylmorpholin-4-yl)methyl]piperidin-1-yl}-3-fluorophenyl)benzene-1-sulfonamide] gave an AC50 of no more than 2 µM.

For `CN(C)S(=N)(=O)c1ccc(S(=O)(=O)Nc2cccc(F)c2N2CCC(CN3CCOCC3(C)C)CC2)cc1` (stereo not drawn) [Compound A-867, 4-[(2-{4-[(3,3-dimethylmorpholin-4-yl)methyl]piperidin-1-yl}-3-fluorophenyl)sulfamoyl]-N,N-dimethylbenzene-1-sulfonoimidamide], the AC50 is no more than 2 µM.

In turn, `C[C@@H]1CN(C2CCN(c3c(F)cccc3NS(=O)(=O)c3ccc(S(=O)(=O)N(C)C)cc3)CC2)C[C@H](C)O1` [Compound A-868, N4-(2-{4-[(2R,6S)-2,6-dimethylmorpholin-4-yl]piperidin-1-yl}-3-fluorophenyl)-N1,N1-dimethylbenzene-1,4-disulfonamide] had an AC50 of no more than 2 µM.

In turn, `CC(c1cccc(F)c1N1CCC(CN2C3COCC2C3)CC1)S(=O)(=O)c1ccc(S(=O)(=O)N(C)C)cc1` [Compound A-869, rel-4-[(1R)-1-{3-fluoro-2-[4-({3-oxa-6-azabicyclo[3.1.1]heptan-6-yl}methyl)piperidin-1-yl]phenyl}ethanesulfonyl]-N,N-dimethylbenzene-1-sulfonamide] gave an AC50 of 2.01 to 8 µM.

For `CC(C1CCN(c2c(F)cccc2NS(=O)(=O)c2ccc(S(=N)(=O)N(C)C)cc2)CC1)N1C[C@@H](C)O[C@@H](C)C1` (stereo partly drawn) [Compound A-872A, N-(2-(4-(1-((2S,6R)-2,6-dimethylmorpholino)ethyl)piperidin-1-yl)-3-fluorophenyl)-4-(N,N-dimethylsulfamidimidoyl)benzenesulfonamide], the concentration at half-maximal activity (AC50) is no more than 2 µM.

`CN(C)S(=O)(=O)c1ccc(S(=O)(=O)Nc2cccc(F)c2N2CCC(N3CCC4(CCOC4)C3)CC2)cc1` (stereo not drawn) [Compound A-874, N4-[3-fluoro-2-(4-{2-oxa-7-azaspiro[4.4]nonan-7-yl}piperidin-1-yl)phenyl]-N1,N1-dimethylbenzene-1,4-disulfonamide] returned an AC50 of 2.01 to 8 µM.

Consider `CC1(C)Cc2cc(S(=O)(=O)Nc3cccc(F)c3N3CCC(CN4C5COCC4C5)CC3)ccc2O1` [Compound A-875, N-{3-fluoro-2-[4-({3-oxa-6-azabicyclo[3.1.1]heptan-6-yl}methyl)piperidin-1-yl]phenyl}-2,2-dimethyl-2,3-dihydro-1-benzofuran-5-sulfonamide], for which the AC50 is no less than 10 µM.

The molecule `O=S(=O)(Nc1cccc(F)c1N1CCC(CN2C3COCC2C3)CC1)c1ccc2c(c1)CCC2` [Compound A-876, N-{3-fluoro-2-[4-({3-oxa-6-azabicyclo[3.1.1]heptan-6-yl}methyl)piperidin-1-yl]phenyl}-2,3-dihydro-1H-indene-5-sulfonamide] showed an AC50 of no less than 10 µM.

In turn, `CN(C)S(=N)(=O)c1ccc(S(=O)(=O)Nc2ccccc2N2CCC(COC(F)(F)CF)CC2)cc1` (stereo not drawn) [Compound A-877, N,N-dimethyl-4-[(2-{4-[(1,1,2-trifluoroethoxy)methyl]piperidin-1-yl}phenyl)sulfamoyl]benzene-1-sulfonoimidamide] displayed a half-maximal activity concentration (AC50) of no more than 2 µM.
